# From patent publication US12370161B2, “Composition for treating atopy or pruritus comprising N-acetyl or N-acyl amino acid” (STEMDR INC., priority 2017, dated 2025)
# What was measured:
# [1] = tested on: atopic dermatitis-induced Nc/Nga mouse; experiment: SCORAD clinical skin score, DNFB-induced atopic dermatitis in Nc/Nga mouse; type: in vivo; parameters: key to Mouse 1 Erythema / Mouse 2 Eschar / Mouse 2 Dryness / Mouse 2 Abrasion / Mouse 1 Edema / Mouse 1 Eschar / Mouse 1 Dryness / Mouse 1 Abrasion / Mouse 2 Erythema / Mouse 2 Edema / Mouse 3 Erythema / Mouse 3 Edema / Mouse 3 Eschar / Mouse 3 Dryness / Mouse 3 Abrasion: 0 = no symptom, 1 = mild, 2 = moderate, 3 = severe; key to Mouse 1 Sum / Mean (of Sum, SCORAD) / Mouse 3 Sum: sum of individual symptom scores, each graded 0-3; conditions: for dermatitis-treating effect of L-, L/D- and D-form (FIG. 6): Nc/Nga atopic dermatitis model, 0.1%; for Mouse 1 Erythema: DNFB Nc/Nga (FIG. 8), 0.1% in PBS, 200 μL on back skin daily day 15-21; for Mouse 1 Erythema / Mouse 1 Abrasion / Mouse 1 Dryness / Mouse 1 Edema / Mouse 1 Eschar / Mouse 1 Lichenification / Mouse 2 Abrasion / Mouse 2 Dryness / Mouse 2 Edema / Mouse 2 Erythema / Mouse 2 Eschar / Mouse 2 Lichenification / Mouse 3 Abrasion / Mouse 3 Dryness / Mouse 3 Edema / Mouse 3 Erythema / Mouse 3 Eschar / Mouse 3 Lichenification: graded per Example 4; for Mouse 1 Abrasion / Mouse 1 Dryness / Mouse 1 Edema / Mouse 1 Eschar / Mouse 1 Lichenification / Mouse 1 Sum / Mouse 2 Abrasion / Mouse 2 Dryness / Mouse 2 Edema / Mouse 2 Erythema / Mouse 2 Eschar / Mouse 2 Lichenification / Mouse 2 Sum / Mouse 3 Abrasion / Mouse 3 Dryness / Mouse 3 Edema / Mouse 3 Erythema / Mouse 3 Eschar / Mouse 3 Lichenification / Mouse 3 Sum / Mean (of Sum, SCORAD): DNFB Nc/Nga, 0.1% topical day 15-21; for Mouse 1 Sum / Mouse 2 Sum / Mouse 3 Sum: sum of individual scores; for Mean (of Sum, SCORAD): mean of 3 mice
# Procedure: In order to establish a model more similar to an atopy model than that of the Balb/c mice, atopy was induced in Nc/Nga mouse mice. Specifically, after inducing DNFB sensitization by applying 100 μL of 0.35% 2,4-dinitrofluorobenzene (DNFB) in acetone/olive oil (3:1) on the shaved back skin, dermatitis was induced by applying 100 μL of 0.15% DNFB for 4-20 days, every other day. Control mice were treated with a vehicle of the same volume (FIG. 1B).
# (§1) After dissolving an N-acetyl or N-acylamino acid in phosphate-buffered saline to 0.1%, 200 μL of the solution was applied on the back skin of the mice every day, from day 22 until day 28 for the Balb/c atopic dermatitis model, and from day 15 until day 21 for the Nc/Nga atopic dermatitis model. When the N-acetyl or N-acylamino acid was treated together with DNFB, they were treated with 12-hour intervals in order to avoid direct reaction between the DNFB and the N-acetyl or N-acylamino acid. A non-treated group and a 2,4-dinitrofluorobenzene (DNFB) group were treated with phosphate-buffered saline of the same volume (FIGS. 1A-1B). As the N-acetylamino acid, products purchased from Sigma-Aldrich (USA), MP scientific (USA), TCI (Tokyo Chemical Industry, Japan), Santacruz (USA), etc. were used without purification.
# (§2) The degree of skin soothing and the severity of atopic dermatitis were evaluated macroscopically according to the previously established SCORAD (SCORing Atopic Dermatitis) method (Oranje et al., 2007). The degree of symptoms such as edema, erythema, eschar, dryness, abrasion, lichenification, etc. was graded from 0 to 3 (0, no symptom; 1, mild; 2, moderate; 3, severe). The overall dermatitis score was determined from the sum of all individual scores (Table 1). The assessment was performed by an investigator who was blind to the grouping of the mice.
# Skin-soothing effect and the severity of dermatitis were evaluated for the acyl derivatives of tryptophan synthesized in Example 9, the acyl derivative of alanine synthesized in Example 10 and N-palmitoylalanine (purchased from Santacruz (USA)) according to the method of Example 4 (Table 2)
# [2] = tested on: atopic dermatitis-induced Balb/c mouse; experiment: SCORAD clinical skin score, DNFB-induced atopic dermatitis in Balb/c mouse; type: in vivo; parameters: key to Mouse 1 Sum / Mean (of Sum, SCORAD) / Mouse 2 Sum / Mouse 3 Sum: sum of symptom grades, each 0 (none) to 3 (severe); conditions: DNFB Balb/c
# Procedure: In order to induce atopy-like dermatitis in Balb/c mice, DNFB sensitization was induced by applying 100 μL of 0.35% 2,4-dinitrofluorobenzene (DNFB) (Sigma, USA) in acetone/olive oil (3:1) on the shaved back skin of the mice. Then, dermatitis was induced by applying 100 μL of 0.25% DNFB on days 6, 9, 12, 15, 18 21, 24 and 27 on the shaved back skin. Control mice were treated with a vehicle of the same volume (FIG. 1A).
# as §1, §2
# [3] = Mouse 1, 0.1% topical day 22-28, grade 0-3
# [4] = Mouse 2, 0.1% topical day 22-28, grade 0-3
# [5] = Mouse 3, 0.1% topical day 22-28, grade 0-3
structure (smiles),measurement,setting,value
"CC(=O)N[C@@H](Cc1c[nH]c2ccccc12)C(=O)O [D-form N-acetyltryptophan, N-acetyltryptophan, reference compound]","dermatitis-treating effect of L-, L/D- and D-form (FIG. 6)",[1],no effect
CCCCCCCC/C=C\CCCCCCCC(=O)N[C@@H](Cc1c[nH]c2ccccc12)C(=O)O [N-oleoyl-L-tryptophan],Mouse 1 Erythema,[1],2
same,Mouse 1 Abrasion,[1],2
same,Mouse 1 Dryness,[1],2
same,Mouse 1 Edema,[1],1
same,Mouse 1 Eschar,[1],2
same,Mouse 1 Lichenification,[1],3
same,Mouse 1 Sum,[1],12
same,Mouse 2 Abrasion,[1],2
same,Mouse 2 Dryness,[1],2
same,Mouse 2 Edema,[1],1
same,Mouse 2 Erythema,[1],1
same,Mouse 2 Eschar,[1],1
same,Mouse 2 Lichenification,[1],3
same,Mouse 2 Sum,[1],10
same,Mouse 3 Abrasion,[1],2
same,Mouse 3 Dryness,[1],2
same,Mouse 3 Edema,[1],1
same,Mouse 3 Erythema,[1],2
same,Mouse 3 Eschar,[1],1
same,Mouse 3 Lichenification,[1],2
same,Mouse 3 Sum,[1],10
same,"Mean (of Sum, SCORAD)",[1],10.7
"CCCC(=O)N[C@@H](Cc1c[nH]c2ccccc12)C(=O)O [N-butyryl L-tryptophan, N-butyryl-L-tryptophan]",Mouse 1 Erythema,[1],1
same,Mouse 1 Abrasion,[1],1
same,Mouse 1 Dryness,[1],2
same,Mouse 1 Edema,[1],2
same,Mouse 1 Eschar,[1],2
same,Mouse 1 Lichenification,[1],2
same,Mouse 1 Sum,[1],10
same,Mouse 2 Abrasion,[1],2
same,Mouse 2 Dryness,[1],2
same,Mouse 2 Edema,[1],1
same,Mouse 2 Erythema,[1],2
same,Mouse 2 Eschar,[1],1
same,Mouse 2 Lichenification,[1],2
same,Mouse 2 Sum,[1],10
same,Mouse 3 Abrasion,[1],1
same,Mouse 3 Dryness,[1],1
same,Mouse 3 Edema,[1],1
same,Mouse 3 Erythema,[1],1
same,Mouse 3 Eschar,[1],1
same,Mouse 3 Lichenification,[1],2
same,Mouse 3 Sum,[1],6
same,"Mean (of Sum, SCORAD)",[1],8.7
"CC(=O)N[C@@H](C)C(=O)O [D-form N-acetylalanine, N-acetylalanine, reference compound]","dermatitis-treating effect of L-, L/D- and D-form (FIG. 6)",[1],no effect
"CCCCC(=O)N[C@@H](Cc1c[nH]c2ccccc12)C(=O)O [N-pentanoyl L-tryptophan, N-pentanoyl-L-tryptophan]",Mouse 1 Erythema,[1],2
same,Mouse 1 Abrasion,[1],1
same,Mouse 1 Dryness,[1],2
same,Mouse 1 Edema,[1],2
same,Mouse 1 Eschar,[1],2
same,Mouse 1 Lichenification,[1],2
same,Mouse 1 Sum,[1],11
same,Mouse 2 Abrasion,[1],1
same,Mouse 2 Dryness,[1],2
same,Mouse 2 Edema,[1],2
same,Mouse 2 Erythema,[1],2
same,Mouse 2 Eschar,[1],1
same,Mouse 2 Lichenification,[1],2
same,Mouse 2 Sum,[1],10
same,Mouse 3 Abrasion,[1],2
same,Mouse 3 Dryness,[1],1
same,Mouse 3 Edema,[1],2
same,Mouse 3 Erythema,[1],2
same,Mouse 3 Eschar,[1],2
same,Mouse 3 Lichenification,[1],1
same,Mouse 3 Sum,[1],10
same,"Mean (of Sum, SCORAD)",[1],10.3
CCCCCCCCCCCCCCCC(=O)N[C@@H](Cc1c[nH]c2ccccc12)C(=O)O [N-palmitoyl-L-tryptophan],Mouse 1 Erythema,[1],1
same,Mouse 1 Abrasion,[1],1
same,Mouse 1 Dryness,[1],1
same,Mouse 1 Edema,[1],2
same,Mouse 1 Eschar,[1],1
same,Mouse 1 Lichenification,[1],2
same,Mouse 1 Sum,[1],6
same,Mouse 2 Abrasion,[1],2
same,Mouse 2 Dryness,[1],2
same,Mouse 2 Edema,[1],1
same,Mouse 2 Erythema,[1],2
same,Mouse 2 Eschar,[1],2
same,Mouse 2 Lichenification,[1],1
same,Mouse 2 Sum,[1],10
same,Mouse 3 Abrasion,[1],1
same,Mouse 3 Dryness,[1],2
same,Mouse 3 Edema,[1],2
same,Mouse 3 Erythema,[1],2
same,Mouse 3 Eschar,[1],1
same,Mouse 3 Lichenification,[1],2
same,Mouse 3 Sum,[1],10
same,"Mean (of Sum, SCORAD)",[1],8.7
"CCCCCCCCCCCCCCCCCC(=O)N[C@@H](Cc1c[nH]c2ccccc12)C(=O)O [N-stearyl-L-tryptophan, N-stearoyl-L-tryptophan]",Mouse 1 Erythema,[1],2
same,Mouse 1 Abrasion,[1],2
same,Mouse 1 Dryness,[1],2
same,Mouse 1 Edema,[1],2
same,Mouse 1 Eschar,[1],2
same,Mouse 1 Lichenification,[1],2
same,Mouse 1 Sum,[1],12
same,Mouse 2 Abrasion,[1],2
same,Mouse 2 Dryness,[1],2
same,Mouse 2 Edema,[1],2
same,Mouse 2 Erythema,[1],2
same,Mouse 2 Eschar,[1],1
same,Mouse 2 Lichenification,[1],1
same,Mouse 2 Sum,[1],10
same,Mouse 3 Abrasion,[1],2
same,Mouse 3 Dryness,[1],1
same,Mouse 3 Edema,[1],2
same,Mouse 3 Erythema,[1],2
same,Mouse 3 Eschar,[1],2
same,Mouse 3 Lichenification,[1],2
same,Mouse 3 Sum,[1],11
same,"Mean (of Sum, SCORAD)",[1],11
"CCCCCCCC/C=C\CCCCCCCCCCCC(=O)N[C@@H](Cc1c[nH]c2ccccc12)C(=O)O [N-(Z)-docos-13-enoyl L-tryptophan, N—(Z)-docos-13-enoyl-L-tryptophan]",Mouse 1 Erythema,[1],1
same,Mouse 1 Abrasion,[1],1
same,Mouse 1 Dryness,[1],1
same,Mouse 1 Edema,[1],1
same,Mouse 1 Eschar,[1],1
same,Mouse 1 Lichenification,[1],0
same,Mouse 1 Sum,[1],5
same,Mouse 2 Abrasion,[1],1
same,Mouse 2 Dryness,[1],2
same,Mouse 2 Edema,[1],1
same,Mouse 2 Erythema,[1],1
same,Mouse 2 Eschar,[1],2
same,Mouse 2 Lichenification,[1],0
same,Mouse 2 Sum,[1],7
same,Mouse 3 Abrasion,[1],1
same,Mouse 3 Dryness,[1],2
same,Mouse 3 Edema,[1],1
same,Mouse 3 Erythema,[1],2
same,Mouse 3 Eschar,[1],2
same,Mouse 3 Lichenification,[1],1
same,Mouse 3 Sum,[1],9
same,"Mean (of Sum, SCORAD)",[1],7
"CC(=O)N[C@@H](CCC(=O)N[C@@H](C)C(=O)O)C(=O)O [N-acetyly-glutammyl-L-alanine, N-acetyl-γ-glutammyl-L-alanine]",Mouse 1 Erythema,[1],0
same,Mouse 1 Abrasion,[1],1
same,Mouse 1 Dryness,[1],0
same,Mouse 1 Edema,[1],1
same,Mouse 1 Eschar,[1],0
same,Mouse 1 Lichenification,[1],2
same,Mouse 1 Sum,[1],4
same,Mouse 2 Abrasion,[1],1
same,Mouse 2 Dryness,[1],1
same,Mouse 2 Edema,[1],1
same,Mouse 2 Erythema,[1],1
same,Mouse 2 Eschar,[1],2
same,Mouse 2 Lichenification,[1],2
same,Mouse 2 Sum,[1],8
same,Mouse 3 Abrasion,[1],1
same,Mouse 3 Dryness,[1],0
same,Mouse 3 Edema,[1],1
same,Mouse 3 Erythema,[1],1
same,Mouse 3 Eschar,[1],1
same,Mouse 3 Lichenification,[1],2
same,Mouse 3 Sum,[1],6
same,"Mean (of Sum, SCORAD)",[1],6
CC(=O)N1CCC[C@H]1C(=O)O [N-acetyl-L-proline],Mouse 1 Erythema,"[2]; Mouse 1, 0.1% in PBS, 200 μL on back skin daily day 22-28, grade 0-3 (0 no symptom, 1 mild, 2 moderate, 3 severe)",3
same,Mouse 1 Abrasion,[2]; [3],2
same,Mouse 1 Dryness,[2]; [3],3
same,Mouse 1 Edema,[2]; [3],2
same,Mouse 1 Eschar,[2]; [3],1
same,Mouse 1 Lichenification,[2]; [3],2
same,Mouse 1 Sum,"[2]; Mouse 1, 0.1% topical day 22-28, overall dermatitis score, sum of individual scores",13
same,Mouse 2 Abrasion,[2]; [4],2
same,Mouse 2 Dryness,[2]; [4],3
same,Mouse 2 Edema,[2]; [4],3
same,Mouse 2 Erythema,[2]; [4],2
same,Mouse 2 Eschar,[2]; [4],2
same,Mouse 2 Lichenification,[2]; [4],2
same,Mouse 2 Sum,"[2]; Mouse 2, 0.1% topical day 22-28, overall dermatitis score, sum of individual scores",14
same,Mouse 3 Abrasion,[2]; [5],1
same,Mouse 3 Dryness,[2]; [5],3
same,Mouse 3 Edema,[2]; [5],2
same,Mouse 3 Erythema,[2]; [5],3
same,Mouse 3 Eschar,[2]; [5],2
same,Mouse 3 Lichenification,[2]; [5],2
same,Mouse 3 Sum,"[2]; Mouse 3, 0.1% topical day 22-28, overall dermatitis score, sum of individual scores",13
same,"Mean (of Sum, SCORAD)","[2]; mean of 3 mice, 0.1% topical day 22-28",13.33
